{"source": "patent US20250122191A1", "about": "“COMPOUNDS AS BCL-2 INHIBITORS” (Fochon Biosciences, Ltd, priority 2021, published 2025)"}
{"system": "Toledo cells", "assay": "Cell proliferation assay (MTS), Toledo cells", "type": "cell-based", "conditions": "Homo sapiens, 72 h", "method": "MTS testing kit was purchased from Promega (Madison, WI, USA). The RPMI-1640, Fetal bovine serum and Penicillin-Streptomycin were purchased from BI (Biological Industries, Beit Haemek, Israel). Dimethyl sulfoxide (DMSO) was purchased from Sigma (St. Louis., MO, USA). Toledo (ATCC catalog #: CRL-2631) cells were cultured in RPMI-1640 supplemented with Penicillin-Streptomycin and 10% FBS.\nTo investigate whether a compound is able to inhibit the activity of BCL-2 in cells, a mechanism-based assay using Toledo lines was developed. In this assay, the inhibition of BCL-2 was reflected by the inhibition of cell proliferation of Toledo cells. Cells were plated into 96-well plates at the optimized cell density of 30000 cells/well. Plates were incubated at 37° C., with 5% CO2 for 4 h. Compounds were serially diluted and added to the plates with the final concentrations of 10000, 3333.3, 1111.1, 370.4, 123.5, 41.2, 13.7, 4.6 and 1.5 nM. Plates were incubated at 37° C., with 5% CO2 for 72 h. 20 μl MTS was added into each well and the plates were incubated at 37° C., with 5% CO2 for exactly 2 h. The absorbance was measured by a microplate reader at 490 nm. IC50 was calculated using GraphPad Prism 5.0 software.", "units": {"IC50": "nM"}}
{"smiles": "CCOc1nc2[nH]cc(F)c2cc1Oc1cc(N2CCC3(CC2)CC(N2CCN(Cc4cc(F)c(OC)c(F)c4)C[C@H]2c2ccccc2C(C)C)C3)ccc1C(=O)NS(=O)(=O)c1cnc(NC[C@H]2CC[C@](C)(O)CC2)c([N+](=O)[O-])c1", "note": "[Example 108, 4-(2-((R)-4-(3,5-difluoro-4-methoxybenzyl)-2-(2-isopropylphenyl)piperazin-1-yl)-7-azaspiro[3.5]nonan-7-yl)-2-((6-ethoxy-3-fluoro-1H-pyrrolo[2,3-b]pyridin-5-yl)oxy)-N-((6-((((1r,4r)-4-hydroxy-4-methylcyclohexyl)methyl)amino)-5-nitropyridin-3-yl)sulfonyl)benzamide]", "IC50": 1}
{"smiles": "CCOc1nc2[nH]cc(F)c2cc1Oc1cc(N2CCC3(CC2)CC(N2CCN(C(C)=O)C[C@H]2c2ccccc2C(C)C)C3)ccc1C(=O)NS(=O)(=O)c1cnc(NC[C@H]2CC[C@](C)(O)CC2)c([N+](=O)[O-])c1", "note": "[Example 147, 4-(2-((R)-4-acetyl-2-(2-isopropylphenyl)piperazin-1-yl)-7-azaspiro[3.5]nonan-7-yl)-2-((6-ethoxy-3-fluoro-1H-pyrrolo[2,3-b]pyridin-5-yl)oxy)-N-((6 ((((1r,4r)-4-hydroxy-4-methylcyclohexyl)methyl)amino)-5-nitropyridin-3-yl)sulfonyl)benzamide]", "IC50": 1}
{"smiles": "COc1nc2[nH]cc(F)c2cc1Oc1cc(N2CCC3(CC2)CC(N2CCN(C(C)=O)C[C@H]2c2ccccc2C(C)C)C3)ccc1C(=O)NS(=O)(=O)c1cnc(NC[C@H]2CC[C@](C)(O)CC2)c([N+](=O)[O-])c1", "note": "[Example 146, 4-(2-((R)-4-acetyl-2-(2-isopropylphenyl)piperazin-1-yl)-7-azaspiro[3.5]nonan-7-yl)-2-((3-fluoro-6-methoxy-1H-pyrrolo[2,3-b]pyridin-5-yl)oxy)-N-((6-((((1r,4r)-4-hydroxy-4-methylcyclohexyl)methyl)amino)-5-nitropyridin-3-yl)sulfonyl)benzamide]", "IC50": 1}
{"smiles": "CC(C)c1ccccc1[C@@H]1CN(Cc2ccc(OC(F)F)cc2)CCN1C1CC2(CCN(c3ccc(C(=O)NS(=O)(=O)c4cnc(NC[C@H]5CC[C@](C)(O)CC5)c([N+](=O)[O-])c4)c(Oc4cnc5[nH]cc(F)c5c4)c3)CC2)C1", "note": "[Example 343, 4-(2-((R)-4-(4-(difluoromethoxy)benzyl)-2-(2-isopropylphenyl)piperazin-1-yl)-7-azaspiro[3.5]nonan-7-yl)-2-((3-fluoro-1H-pyrrolo[2,3-b]pyridin-5-yl)oxy)-N-((6-((((1r,4r)-4-hydroxy-4-methylcyclohexyl)methyl)amino)-5-nitropyridin-3-yl)sulfonyl)benzamide]", "IC50": 1}
{"smiles": "CC(=O)N1CCN(C2CC3(CCN(c4ccc(C(=O)NS(=O)(=O)c5cnc(NC[C@H]6CC[C@](C)(O)CC6)c([N+](=O)[O-])c5)c(Oc5cnc6[nH]cc(F)c6c5)c4)CC3)C2)[C@H](c2ccccc2C(C)C)C1", "note": "[Example 148, 4-(2-((R)-4-acetyl-2-(2-isopropylphenyl)piperazin-1-yl)-7-azaspiro[3.5]nonan-7-yl)-2-((3-fluoro-1H-pyrrolo[2,3-b]pyridin-5-yl)oxy)-N-((6-((((1r,4r)-4-hydroxy-4-methylcyclohexyl)methyl)amino)-5-nitropyridin-3-yl)sulfonyl)benzamide]", "IC50": 1}
{"smiles": "CCOc1nc2[nH]cc(F)c2cc1Oc1cc(N2CCC3(CC2)CC(N2CCN(C(C)C)C[C@H]2c2ccccc2C(C)C)C3)ccc1C(=O)NS(=O)(=O)c1cnc(NC[C@H]2CC[C@](C)(O)CC2)c([N+](=O)[O-])c1", "note": "[Example 100, 2-((6-ethoxy-3-fluoro-1H-pyrrolo[2,3-b]pyridin-5-yl)oxy)-N-((6-((((1r,4r)-4-hydroxy-4-methylcyclohexyl)methyl)amino)-5-nitropyridin-3-yl)sulfonyl)-4-(2-((R)-4-isopropyl-2-(2-isopropylphenyl)piperazin-1-yl)-7-azaspiro[3.5]nonan-7-yl)benzamide]", "IC50": 1}
{"smiles": "CCOc1nc2[nH]cc(F)c2cc1Oc1cc(N2CCC3(CC2)CC(N2CCN(C4CC4)C[C@H]2c2ccccc2C(C)C)C3)ccc1C(=O)NS(=O)(=O)c1cnc(NC[C@H]2CC[C@](C)(O)CC2)c([N+](=O)[O-])c1", "note": "[Example 144, 4-(2-((R)-4-cyclopropyl-2-(2-isopropylphenyl)piperazin-1-yl)-7-azaspiro[3.5]nonan-7-yl)-2-((6-ethoxy-3-fluoro-1H-pyrrolo[2,3-b]pyridin-5-yl)oxy)-N-((6-((((1r,4r)-4-hydroxy-4-methylcyclohexyl)methyl)amino)-5-nitropyridin-3-yl)sulfonyl)benzamide]", "IC50": 1}
{"smiles": "COc1nc2[nH]cc(F)c2cc1Oc1cc(N2CCC3(CC2)CC(N2CCN(Cc4ccc5c(c4)OCCO5)C[C@H]2c2ccccc2C(C)C)C3)ccc1C(=O)NS(=O)(=O)c1cnc(NC[C@H]2CC[C@](C)(O)CC2)c([N+](=O)[O-])c1", "note": "[Example 321, 4-(2-((R)-4-((2,3-dihydrobenzo[b][1,4]dioxin-6-yl)methyl)-2-(2-isopropylphenyl)piperazin-1-yl)-7-azaspiro[3.5]nonan-7-yl)-2-((3-fluoro-6-methoxy-1H-pyrrolo[2,3-b]pyridin-5-yl)oxy)-N-((6-((((1r,4r)-4-hydroxy-4-methylcyclohexyl)methyl)amino)-5-nitropyridin-3-yl)sulfonyl)benzamide]", "IC50": 1}
{"smiles": "CC(C)c1ccccc1[C@@H]1CN(Cc2ccc(S(C)(=N)=O)cc2)CCN1C1CC2(CCN(c3ccc(C(=O)NS(=O)(=O)c4cnc(NC[C@H]5CC[C@](C)(O)CC5)c([N+](=O)[O-])c4)c(Oc4cnc5[nH]cc(F)c5c4)c3)CC2)C1", "note": "(stereo partly drawn) [Example 337, 2-((3-fluoro-1H-pyrrolo[2,3-b]pyridin-5-yl)oxy)-N-((6-((((1r,4r)-4-hydroxy-4-methylcyclohexyl)methyl)amino)-5-nitropyridin-3-yl)sulfonyl)-4-(2-((2R)-2-(2-isopropylphenyl)-4-(4-(S-methylsulfonimidoyl)benzyl)piperazin-1-yl)-7-azaspiro[3.5]nonan-7-yl)benzamide]", "IC50": 1}
{"smiles": "CCOc1nc2[nH]cc(F)c2cc1Oc1cc(N2CCC3(CC2)CC(N2CCN(Cc4ccncc4)C[C@H]2c2ccccc2C(C)C)C3)ccc1C(=O)NS(=O)(=O)c1cnc(NC[C@H]2CC[C@](C)(O)CC2)c([N+](=O)[O-])c1", "note": "[Example 238, 2-((6-ethoxy-3-fluoro-1H-pyrrolo[2,3-b]pyridin-5-yl)oxy)-N-((6-((((1r,4r)-4-hydroxy-4-methylcyclohexyl)methyl)amino)-5-nitropyridin-3-yl)sulfonyl)-4-(2-((R)-2-(2-isopropylphenyl)-4-(pyridin-4-ylmethyl)piperazin-1-yl)-7-azaspiro[3.5]nonan-7-yl)benzamide]", "IC50": 1}
{"smiles": "CC(C)c1ccccc1[C@@H]1CN(Cc2ccc3c(c2)OCCO3)CCN1C1CC2(CCN(c3ccc(C(=O)NS(=O)(=O)c4cnc(NC[C@H]5CC[C@](C)(O)CC5)c([N+](=O)[O-])c4)c(Oc4cnc5[nH]cc(F)c5c4)c3)CC2)C1", "note": "[Example 322, 4-(2-((R)-4-((2,3-dihydrobenzo[b][1,4]dioxin-6-yl)methyl)-2-(2-isopropylphenyl)piperazin-1-yl)-7-azaspiro[3.5]nonan-7-yl)-2-((3-fluoro-1H-pyrrolo[2,3-b]pyridin-5-yl)oxy)-N-((6-((((1r,4r)-4-hydroxy-4-methylcyclohexyl)methyl)amino)-5-nitropyridin-3-yl)sulfonyl)benzamide]", "IC50": 1}
